{"source": "ChEMBL document CHEMBL4828751", "about": "“Discovery of novel tubulin/HDAC dual-targeting inhibitors with strong antitumor and antiangiogenic potency” (Eur J Med Chem, 2021)", "key": {"HepG2": {"tested_on": "HepG2", "test": "Antiproliferative activity against human HepG2 cells assessed as cell growth inhibition after 72 hrs by SRB assay", "format": "functional, cell-based", "details": "HepG2, 72 h"}, "MGC-803 [1]": {"tested_on": "MGC-803", "test": "Induction of apoptosis in human MGC-803 cells assessed as increase in cleaved Caspase-3 expression incubated for 24 hrs by Western blot analysis", "format": "functional, cell-based", "details": "dose 7.5-30 nM"}, "MGC-803 [2]": {"tested_on": "MGC-803", "test": "Induction of cell cycle arrest in human MGC-803 cells assessed as accumulation at S phase at 15 nM incubated for 24 hrs by propidium iodide staining based flow cytometry (reference value: 17.3 %)", "format": "functional"}, "MGC-803 [3]": {"tested_on": "MGC-803", "test": "Induction of mitochondrial membrane potential loss in human MGC-803 cells after 48 hrs by JC-1 staining based flow cytometric analysis", "format": "functional, cell-based", "details": "dose 7.5-30 nM"}, "MGC-803 [4]": {"tested_on": "MGC-803", "test": "Induction of cell cycle arrest in human MGC-803 cells assessed as accumulation at G2/M phase at 7.5 nM incubated for 24 hrs by propidium iodide staining based flow cytometry (reference value: 37.03 %)", "format": "functional"}, "HEK-293T": {"tested_on": "HEK-293T", "test": "Cytotoxicity against human HEK293T cells assessed as reduction in cell viability", "format": "cell-based"}, "MGC-803 [5]": {"tested_on": "MGC-803", "test": "Induction of apoptosis in human MGC-803 cells assessed as increase in cleaved PARP expression incubated for 24 hrs by Western blot analysis", "format": "functional, cell-based"}, "Tubulin (Homo sapiens)": {"target": "Tubulin (Homo sapiens) (UniProt P68371+Q9H4B7+P0DPH7+P68366+Q13509+Q71U36+P04350+Q3ZCM7+P07437+P68363+Q9BQE3+Q6PEY2+Q13885+Q9BVA1+Q9BUF5)", "test": "Inhibition of tubulin polymerization in human MGC-803 cells assessed as blockage of spindle formation at 30 nM measured after 48 hrs by Hoechst staining based confocal microscopy analysis", "format": "cell-based"}, "U-937": {"tested_on": "U-937", "test": "Antiproliferative activity against human U-937 cells assessed as cell growth inhibition after 72 hrs by CCK8 assay", "format": "functional, cell-based", "details": "U-937, 72 h"}, "HUVEC [6]": {"tested_on": "HUVEC", "test": "Inhibition of cell migration in HUVEC cells assessed as decrease in number of migrated endothelial cells at 5 to 20 nM measured after 48 hrs by transwell analysis", "format": "functional, cell-based", "details": "Homo sapiens, dose 5-20 nM"}, "MGC-803 [7]": {"tested_on": "MGC-803", "test": "Induction of apoptosis in human MGC-803 cells assessed as increase in Caspase-9 expression incubated for 24 hrs by Western blot analysis", "format": "functional, cell-based", "details": "dose 7.5-30 nM"}, "MGC-803 [8]": {"tested_on": "MGC-803", "test": "Antiinvasive activity in human MGC-803 cells assessed as decrease in number of migrated MGC-803 cells at 7.5 to 30 nM measured after 48 hrs by transwell assay", "format": "functional, cell-based", "details": "dose 7.5-30 nM"}, "MGC-803 [9]": {"tested_on": "MGC-803", "test": "Induction of apoptosis in human MGC-803 cells assessed as viable cells at 7.5 nM measured after 48 hrs by Annexin V-APC/PI double staining based flow cytometry assay (reference value: 97.1 %)", "format": "functional, cell-based"}, "MGC-803 [10]": {"tested_on": "MGC-803", "test": "Antiproliferative activity against human MGC-803 cells assessed as cell growth inhibition after 72 hrs by SRB assay", "format": "functional, cell-based", "details": "MGC-803, 72 h"}, "MGC-803 [11]": {"tested_on": "MGC-803", "test": "Induction of cell cycle arrest in human MGC-803 cells assessed as accumulation at G1 phase at 30 nM incubated for 24 hrs by propidium iodide staining based flow cytometry (reference value: 45.67 %)", "format": "functional"}, "MGC-803 [12]": {"tested_on": "MGC-803", "test": "Induction of cell cycle arrest in human MGC-803 cells assessed as accumulation at G2/M phase incubated for 24 hrs by propidium iodide staining based flow cytometry", "format": "functional", "details": "dose 7.5-30 nM"}, "L02": {"tested_on": "L02", "test": "Cytotoxicity against human L02 cells assessed as reduction in cell viability", "format": "cell-based"}, "MGC-803 [13]": {"tested_on": "MGC-803", "test": "Induction of cell cycle arrest in human MGC-803 cells assessed as accumulation at G1 phase at 7.5 nM incubated for 24 hrs by propidium iodide staining based flow cytometry (reference value: 45.67 %)", "format": "functional"}, "MGC-803 [14]": {"tested_on": "MGC-803", "test": "Induction of cell cycle arrest in human MGC-803 cells assessed as accumulation at G1 phase at 15 nM incubated for 24 hrs by propidium iodide staining based flow cytometry (reference value: 45.67 %)", "format": "functional"}, "HUVEC [15]": {"tested_on": "HUVEC", "test": "Antiinvasive activity in HUVEC cells assessed as decrease in cell invasion at 5 to 20 nM measured after 48 hrs by transwell assay", "format": "functional, cell-based", "details": "Homo sapiens, dose 5-20 nM"}, "MGC-803 [16]": {"tested_on": "MGC-803", "test": "Induction of ROS generation in human MGC-803 cells assessed as intracellular ROS level at 30 nM incubated for 24 hrs by DCFH-DA staining based flow cytometric analysis (reference value: 2.72 %)", "format": "functional"}, "MGC-803 [17]": {"tested_on": "MGC-803", "test": "Induction of ROS generation in human MGC-803 cells assessed as intracellular ROS level at 15 nM incubated for 24 hrs by DCFH-DA staining based flow cytometric analysis (reference value: 2.72 %)", "format": "functional"}, "MGC-803 [18]": {"tested_on": "MGC-803", "test": "Induction of apoptosis in human MGC-803 cells assessed as early apoptotic cells at 15 nM measured after 48 hrs by Annexin V-APC/PI double staining based flow cytometry assay (reference value: 1.31 %)", "format": "functional, cell-based"}, "MGC-803 [19]": {"tested_on": "MGC-803", "test": "Down regulation of p21 expression in human MGC-803 cells at 7.5 to 30 nM measured after 24 hrs by Western blot analysis", "format": "functional, cell-based", "details": "dose 7.5-30 nM"}, "Tubulin": {"target": "Tubulin", "test": "Inhibition of tubulin polymerization (unknown origin) measured after 1 min by fluorescence assay", "format": "protein-complex assay, Homo sapiens", "details": "read-out: IC50"}, "MGC-803 [20]": {"tested_on": "MGC-803", "test": "Induction of apoptosis in human MGC-803 cells assessed as necrotic cells at 15 nM measured after 48 hrs by Annexin V-APC/PI double staining based flow cytometry assay (reference value: 0.57 %)", "format": "functional, cell-based"}, "MGC-803 [21]": {"tested_on": "MGC-803", "test": "Induction of apoptosis in human MGC-803 cells assessed as necrotic cells at 7.5 nM measured after 48 hrs by Annexin V-APC/PI double staining based flow cytometry assay (reference value: 0.57 %)", "format": "functional, cell-based"}, "MGC-803 [22]": {"tested_on": "MGC-803", "test": "Induction of apoptosis in human MGC-803 cells assessed as viable cells at 15 nM measured after 48 hrs by Annexin V-APC/PI double staining based flow cytometry assay (reference value: 92.1 %)", "format": "functional, cell-based"}, "MGC-803 [23]": {"tested_on": "MGC-803", "test": "Induction of apoptosis in human MGC-803 cells assessed as increase in Caspase-7 expression incubated for 24 hrs by Western blot analysis", "format": "functional, cell-based", "details": "dose 7.5-30 nM"}, "MGC-803 [24]": {"tested_on": "MGC-803", "test": "Induction of mitochondrial membrane potential loss in human MGC-803 cells at 30 nM after 48 hrs by JC-1 staining based flow cytometric analysis (reference value: 86 %)", "format": "functional"}, "MGC-803 [25]": {"tested_on": "MGC-803", "test": "Antitumor activity against CMTPX- labeled human MGC-803 cells xenografted in zebrafish assessed as inhibition of tumor growth measured after 72 hrs by fluorescence microscopic analysis", "format": "functional, cell-based", "details": "dose 25-100 nM"}, "A549": {"tested_on": "A549", "test": "Antiproliferative activity against human A549 cells assessed as cell growth inhibition after 72 hrs by SRB assay", "format": "functional, cell-based", "details": "A549, 72 h"}, "Danio rerio": {"organism": "Danio rerio", "test": "Antiangiogenic activity in 30hpf transgenic Tg(flk:EGFP) zebra fish embryos assessed as reduction in number of intersegmental vessels by confocal fluorescence microscopy analysis", "format": "functional, organism-based", "details": "Embryo, dose 0.1-0.6 µM"}, "MGC-803 [26]": {"tested_on": "MGC-803", "test": "Induction of apoptosis in human MGC-803 cells assessed as increase in cleaved Caspase-7 expression incubated for 24 hrs by Western blot analysis", "format": "functional, cell-based", "details": "dose 7.5-30 nM"}, "MGC-803 [27]": {"tested_on": "MGC-803", "test": "Induction of ROS generation in human MGC-803 cells assessed as increase in intracellular ROS level incubated for 24 hrs by DCFH-DA staining based flow cytometric analysis", "format": "functional, cell-based", "details": "dose 7.5-30 nM"}, "HeLa": {"tested_on": "HeLa", "test": "Antiproliferative activity against human HeLa cells assessed as cell growth inhibition after 72 hrs by SRB assay", "format": "functional, cell-based"}, "MGC-803 [28]": {"tested_on": "MGC-803", "test": "Induction of mitochondrial membrane potential loss in human MGC-803 cells at 15 nM after 48 hrs by JC-1 staining based flow cytometric analysis (reference value: 86 %)", "format": "functional"}}, "note": "Active and inactive are the calls of the source. The rule behind the calls is not given here.", "data": [{"compound": "COc1ccc(/C=C\\c2cc(OC)c(OC)c(OC)c2)cc1/C=C/C(=O)Nc1ccccc1N", "values": [{"measurement": "IC50", "setting": "HepG2", "result": 26, "unit": "nM"}, {"measurement": "Activity", "setting": "MGC-803 [1]", "result": "Dose-Dependent Effect"}, {"measurement": "Activity", "setting": "MGC-803 [2]", "result": 12.7, "unit": "%"}, {"measurement": "Activity", "setting": "MGC-803 [3]", "result": "Dose-Dependent Effect"}, {"measurement": "Activity", "setting": "MGC-803 [4]", "result": "Dose-Dependent Effect"}, {"measurement": "Activity", "setting": "MGC-803 [4]; record 2", "result": 43.82, "unit": "%"}, {"measurement": "IC50", "setting": "HEK-293T", "result": 352, "unit": "nM"}, {"measurement": "Activity", "setting": "MGC-803 [5]", "result": "Dose-Dependent Effect"}, {"measurement": "inhibition", "setting": "Tubulin (Homo sapiens)", "result": "Active"}, {"measurement": "IC50", "setting": "U-937", "result": 305, "unit": "nM"}, {"measurement": "inhibition", "setting": "HUVEC [6]", "result": "Active"}, {"measurement": "Activity", "setting": "MGC-803 [7]", "result": "Dose-Dependent Effect"}, {"measurement": "Activity", "setting": "MGC-803 [8]", "result": "Active"}, {"measurement": "Activity", "setting": "MGC-803 [9]", "result": "Active"}, {"measurement": "IC50", "setting": "MGC-803 [10]", "result": 16, "unit": "nM"}, {"measurement": "Activity", "setting": "MGC-803 [11]", "result": 2.21, "unit": "%"}, {"measurement": "Activity", "setting": "MGC-803 [12]", "result": "Dose-Dependent Effect"}, {"measurement": "IC50", "setting": "L02", "result": 556, "unit": "nM"}, {"measurement": "Activity", "setting": "MGC-803 [13]", "result": 43.58, "unit": "%"}, {"measurement": "Activity", "setting": "MGC-803 [14]", "result": 39.14, "unit": "%"}, {"measurement": "inhibition", "setting": "HUVEC [15]", "result": "Active"}, {"measurement": "Activity", "setting": "MGC-803 [16]", "result": 51.4, "unit": "%"}, {"measurement": "Activity", "setting": "MGC-803 [17]", "result": 26, "unit": "%"}, {"measurement": "Activity", "setting": "MGC-803 [18]", "result": "Active"}, {"measurement": "Activity", "setting": "MGC-803 [19]", "result": "Active"}, {"measurement": "IC50", "setting": "Tubulin", "result": 1000, "unit": "nM"}, {"measurement": "Activity", "setting": "MGC-803 [20]", "result": "Active"}, {"measurement": "Activity", "setting": "MGC-803 [21]", "result": "Active"}, {"measurement": "Activity", "setting": "MGC-803 [22]", "result": "Active"}, {"measurement": "Activity", "setting": "MGC-803 [23]", "result": "Dose-Dependent Effect"}, {"measurement": "Activity", "setting": "MGC-803 [24]", "result": 34.5, "unit": "%"}, {"measurement": "inhibition", "setting": "MGC-803 [25]", "result": "Dose-Dependent Effect"}, {"measurement": "IC50", "setting": "A549", "result": 191, "unit": "nM"}, {"measurement": "Activity", "setting": "Danio rerio", "result": "Dose-Dependent Effect"}, {"measurement": "Activity", "setting": "MGC-803 [26]", "result": "Dose-Dependent Effect"}, {"measurement": "Activity", "setting": "MGC-803 [27]", "result": "Dose-Dependent Effect"}, {"measurement": "IC50", "setting": "HeLa", "result": 50, "unit": "nM"}, {"measurement": "Activity", "setting": "MGC-803 [28]", "result": 63.6, "unit": "%"}]}]}
